This note sets out measurements from BindingDB's records for doi:10.1016/S0960-894X(97)00219-9 (1997).

In general, Kd refers to the equilibrium constant for the complex coming apart. Low values mean tighter binding, high ones weaker binding.

The assay deals with T1, Cysteinyl leukotriene receptor 1 (Cavia porcellus, UniProt Q2NNR5).
T1 sequence (Q2NNR5 whole entry): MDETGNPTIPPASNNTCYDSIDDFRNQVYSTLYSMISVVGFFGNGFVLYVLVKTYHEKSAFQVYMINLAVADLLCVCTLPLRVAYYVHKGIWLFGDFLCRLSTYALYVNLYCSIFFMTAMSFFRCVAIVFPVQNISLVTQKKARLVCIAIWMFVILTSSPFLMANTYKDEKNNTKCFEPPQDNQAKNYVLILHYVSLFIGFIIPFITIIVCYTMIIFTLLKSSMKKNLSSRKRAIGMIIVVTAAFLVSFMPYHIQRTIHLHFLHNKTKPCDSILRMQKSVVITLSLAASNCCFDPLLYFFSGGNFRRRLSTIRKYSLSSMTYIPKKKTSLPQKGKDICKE
Kind of assay: ChEBML_52039. As for the experimental part:
Dissociation constant for CysLT1 receptor was determined by the displacement of [3H]LTD4 from guinea pig lung membranes

Molecule `COc1cc(C(=O)NS(=O)(=O)c2ccccc2)ccc1Cn1ncc2ccc(NC(=O)OC3CCCC3)cc21` registered a Kd of 30.1 µM.
